Reference: ChEMBL document CHEMBL1201862, “PubChem BioAssay data set” (2004)
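Where inhibition never reached the appropriate level, the endpoint shown equals the highest concentration tested. Otherwise, values were interpolated linearly from a five-concentration, 48-hour dose response in 96-well plates. GI50 = concentration required for 50% inhibition of growth.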 Activity calls are given as the source filed them. Cut-off read from the data, not from the text of the source: active = GI50 up to about 1.1 µM and inactive = higher.

Tests used:
Assay in all cases: inhibition of tumour cell growth, NCI panel, 48 h
A498 = test system: A498
CAKI-1 = test system: CAKI-1
CCRF-CEM = test system: CCRF-CEM
HCT-15 = test system: HCT-15
HL-60 = test system: HL-60
HT-29 = test system: HT-29
K562 = test system: K562
MCF7 = test system: MCF7
Malme-3M = test system: Malme-3M
PC-3 = test system: PC-3
RXF 393 = test system: RXF 393
SF-295 = test system: SF-295
SN12C = test system: SN12C
SNB-19 = test system: SNB-19
SNB-75 = test system: SNB-75
U-251 = test system: U-251
UACC-257 = test system: UACC-257
UACC-62 = test system: UACC-62
UO-31 = test system: UO-31
EKVX = test system: EKVX

| SMILES | GI50 (A498) | GI50 (CAKI-1) | GI50 (CCRF-CEM) | GI50 (HCT-15) | GI50 (HL-60) | GI50 (HT-29) | GI50 (K562) | GI50 (MCF7) | GI50 (Malme-3M) | GI50 (PC-3) | GI50 (RXF 393) | GI50 (SF-295) | GI50 (SN12C) | GI50 (SNB-19) | GI50 (SNB-75) | GI50 (U-251) | GI50 (UACC-257) | GI50 (UACC-62) | GI50 (UO-31) | GI50 (EKVX) |
| --- | --- | --- | --- | --- | --- | --- | --- | --- | --- | --- | --- | --- | --- | --- | --- | --- | --- | --- | --- | --- |
| O=C(O)CCC1(C(=O)O)CCC(=O)c2ccccc21 (stereo not drawn) | > 100 µM (inactive) | > 100 µM (inactive) | > 100 µM (inactive) | > 100 µM | > 100 µM (inactive) | > 100 µM (inactive) | > 100 µM (inactive) | > 100 µM (inactive) | > 100 µM (inactive) | > 100 µM (inactive) | > 100 µM (inactive) | > 100 µM (inactive) | > 100 µM (inactive) | > 100 µM (inactive) | > 100 µM (inactive) | > 100 µM (inactive) | > 100 µM (inactive) | > 100 µM (inactive) | > 100 µM (inactive) | – |
| C=C1C(=O)O[C@H]2[C@@H](O)[C@H](C)CCC[C@]3(C)O[C@H]3CC[C@@]3(C)O[C@@H]3C[C@@H]12 | 7.33 µM (inactive) | 6.22 µM (inactive) | 1.58 µM (inactive) | 1.29 µM | 0.897 µM (active) | 5.66 µM (inactive) | 1.14 µM (inactive) | 2.08 µM (inactive) | – | 7.43 µM (inactive) | 1.67 µM (inactive) | 8.55 µM (inactive) | 5.74 µM (inactive) | 11.9 µM (inactive) | 6.9 µM (inactive) | 8.57 µM (inactive) | – | 2.3 µM (inactive) | 6.04 µM (inactive) | 4.06 µM (inactive) |
| COc1ccccc1/C=C/C1=NN(c2cccc(S(=O)(=O)O)c2)C2(C1)C(Cl)C(=O)N2c1nc2ccccc2s1 (stereo not drawn) | > 81.3 µM (inactive) | 31.8 µM (inactive) | 13.5 µM (inactive) | 57.4 µM | 22.1 µM (inactive) | 82.4 µM (inactive) | 31.4 µM (inactive) | 40.7 µM (inactive) | > 100 µM (inactive) | 76.6 µM (inactive) | 31.3 µM (inactive) | 89.3 µM (inactive) | > 84.1 µM (inactive) | > 84.7 µM (inactive) | 42.8 µM (inactive) | 52.7 µM (inactive) | 56.8 µM (inactive) | 48.8 µM (inactive) | 16.9 µM (inactive) | 43.4 µM (inactive) |
| CCCCCNC1=CC(=O)c2ccccc2C1=O | 32.1 µM (inactive) | 33.7 µM (inactive) | > 100 µM (inactive) | 52.2 µM | 18.5 µM (inactive) | 69.2 µM (inactive) | > 100 µM (inactive) | > 72.3 µM (inactive) | 34.5 µM (inactive) | 37.6 µM (inactive) | 21.7 µM (inactive) | 26.3 µM (inactive) | 49.9 µM (inactive) | 24.3 µM (inactive) | 22.2 µM (inactive) | 17.5 µM (inactive) | > 60.5 µM (inactive) | 33.7 µM (inactive) | > 51.6 µM (inactive) | > 58.9 µM (inactive) |
| COC(=O)NNC(c1ccc(Cl)cc1)c1ccc(Cl)cc1 | 18.6 µM (inactive) | 16.1 µM (inactive) | 17.1 µM (inactive) | 15.2 µM | 21 µM (inactive) | 16.5 µM (inactive) | 22.2 µM (inactive) | 23.7 µM (inactive) | 20.6 µM (inactive) | 12.2 µM (inactive) | 10.5 µM (inactive) | – | 19.5 µM (inactive) | 17.3 µM (inactive) | 26.2 µM (inactive) | 19.5 µM (inactive) | 18.2 µM (inactive) | 16 µM (inactive) | 12.5 µM (inactive) | 18.8 µM (inactive) |
| O=C(/N=S(/NC(=O)c1ccccc1)C(Cl)(Cl)Cl)c1ccccc1 (stereo not drawn) | 27 µM (inactive) | 20.9 µM (inactive) | 2.7 µM (inactive) | 8.59 µM | 4.89 µM (inactive) | 18.9 µM (inactive) | 8.91 µM (inactive) | 24 µM (inactive) | 17.5 µM (inactive) | 46.2 µM (inactive) | 12.1 µM (inactive) | 9.25 µM (inactive) | 24.7 µM (inactive) | 51.2 µM (inactive) | 40.6 µM (inactive) | 29.9 µM (inactive) | 35.2 µM (inactive) | 22.6 µM (inactive) | 16.3 µM (inactive) | 19.7 µM (inactive) |
| [C-]#[N+]C1(C(=O)OCC)CC1 | > 100 µM (inactive) | – | > 100 µM (inactive) | > 100 µM | > 100 µM (inactive) | > 100 µM (inactive) | > 100 µM (inactive) | > 100 µM (inactive) | > 100 µM (inactive) | > 100 µM (inactive) | > 100 µM (inactive) | > 100 µM (inactive) | > 100 µM (inactive) | > 100 µM (inactive) | > 100 µM (inactive) | > 100 µM (inactive) | > 100 µM (inactive) | > 100 µM (inactive) | – | > 100 µM (inactive) |
| COC(=O)C(NC(=O)C12CCC(C)(C(=O)O1)C2(C)C)c1cc(C(C)(C)C)c(O)c(C(C)(C)C)c1 (stereo not drawn) | > 100 µM (inactive) | > 100 µM (inactive) | 39.9 µM (inactive) | 91.2 µM | 4.95 µM (inactive) | 72.9 µM (inactive) | 64 µM (inactive) | 47.5 µM (inactive) | > 100 µM (inactive) | 67 µM (inactive) | 83.2 µM (inactive) | > 100 µM (inactive) | – | > 100 µM (inactive) | > 100 µM (inactive) | 73.1 µM (inactive) | – | > 100 µM (inactive) | 95.9 µM (inactive) | > 100 µM (inactive) |
| Cc1ccc(C(O)c2cnc(C)n2Cc2ccccc2)cc1 (stereo not drawn) | > 100 µM (inactive) | > 100 µM (inactive) | – | > 100 µM | 6.43 µM (inactive) | > 100 µM (inactive) | > 100 µM (inactive) | > 100 µM (inactive) | > 100 µM (inactive) | > 100 µM (inactive) | > 100 µM (inactive) | > 100 µM (inactive) | > 100 µM (inactive) | > 100 µM (inactive) | > 100 µM (inactive) | > 100 µM (inactive) | 67.1 µM (inactive) | > 100 µM (inactive) | > 100 µM (inactive) | > 100 µM (inactive) |
| Cn1c2ccccc2c2nc3ccccc3c(Cl)c21 | > 100 µM (inactive) | > 100 µM (inactive) | > 100 µM (inactive) | > 100 µM | > 100 µM (inactive) | > 100 µM (inactive) | > 100 µM (inactive) | > 100 µM (inactive) | > 100 µM (inactive) | > 100 µM (inactive) | 37.9 µM (inactive) | > 100 µM (inactive) | > 100 µM (inactive) | > 100 µM (inactive) | 23.4 µM (inactive) | 55.8 µM (inactive) | > 100 µM (inactive) | 92.5 µM (inactive) | – | – |
| COc1ccc(N2CCN(Cc3c(C(C)=O)[n+]([O-])c4ccccc4[n+]3[O-])CC2)cc1 | 44.7 µM (inactive) | > 100 µM (inactive) | 61.1 µM (inactive) | 47.1 µM | > 100 µM (inactive) | 45.6 µM (inactive) | > 100 µM (inactive) | 24.2 µM (inactive) | 12 µM (inactive) | 87.5 µM (inactive) | 17 µM (inactive) | 51.8 µM (inactive) | 41.2 µM (inactive) | 35.3 µM (inactive) | 15.6 µM (inactive) | 45 µM (inactive) | 29.8 µM (inactive) | 71.6 µM (inactive) | 64.6 µM (inactive) | 75.3 µM (inactive) |
| O=C1CC(NC(=O)C(F)(F)F)c2c(Br)sc(N3CCNCC3)c21 (stereo not drawn) | > 100 µM (inactive) | > 100 µM (inactive) | > 100 µM (inactive) | > 100 µM | > 100 µM (inactive) | 85.7 µM (inactive) | > 100 µM (inactive) | > 100 µM (inactive) | > 100 µM (inactive) | > 100 µM (inactive) | > 100 µM (inactive) | > 100 µM (inactive) | > 100 µM (inactive) | > 100 µM (inactive) | > 100 µM (inactive) | > 100 µM (inactive) | > 100 µM (inactive) | > 100 µM (inactive) | 61.4 µM (inactive) | > 100 µM (inactive) |
| C=C1C(=O)O[C@H]2[C@H]3O[C@@H](C[C@@H]12)[C@](C)(O)CC[C@@H]1O[C@@]1(C)CCC[C@H]3C | 23.6 µM (inactive) | 14.2 µM (inactive) | 11.4 µM (inactive) | 16.9 µM | 27 µM (inactive) | 25.6 µM (inactive) | 23 µM (inactive) | 21.4 µM (inactive) | 12 µM (inactive) | 32 µM (inactive) | 13 µM (inactive) | 68.9 µM (inactive) | 20.3 µM (inactive) | 36.3 µM (inactive) | 18.5 µM (inactive) | 22.4 µM (inactive) | 22.9 µM (inactive) | 16.5 µM (inactive) | 22.2 µM (inactive) | 15.6 µM (inactive) |
| CC(CC[C@@H](O)C(C)(C)O)C1[C@@H](O)CC2(C)C3CC(O)C4C(C)(C)[C@@H](OC5OC(CO)C(O)C(O)C5O)CC[C@@]45C[C@@]35CC[C@]12C (stereo partly drawn) | > 10 µM (inactive) | > 10 µM (inactive) | > 10 µM (inactive) | > 10 µM | > 10 µM (inactive) | > 10 µM (inactive) | > 10 µM (inactive) | > 10 µM (inactive) | > 10 µM (inactive) | > 10 µM (inactive) | > 10 µM (inactive) | > 10 µM (inactive) | > 10 µM (inactive) | > 10 µM (inactive) | > 10 µM (inactive) | > 10 µM (inactive) | > 10 µM (inactive) | > 10 µM (inactive) | – | > 10 µM (inactive) |
